Reference: patent US5703232A, “Process and solvate of 2-methyl-thieno-benzodiazepine” (Eli Lilly and Company, priority 1996, dated 1997)

Legend:
[1] = detection of radiolabelled compound in saliva; type: in vivo
[2] = stability of the anhydrous crystalline forms; type: physicochemical; settings: anhydrous crystalline form, suitability for commercial pharmaceutical formulations
[3] = test system: rats; experiment: induction of catalepsy; type: in vivo; settings: compared with doses required to block conditioned avoidance response
[4] = test system: rats; experiment: conditioned avoidance response in rats; type: in vivo
[5] = test system: mice; experiment: apomorphine-induced climbing behavior in mice; type: in vivo
Source text: (§1) The Form I olanzapine prepared by the process of this invention has useful central nervous system activity. […] For example, the anhydrous Form I compound has been assessed in a number of standard behavior tests predictive of antipsychotic activity. The claimed compound antagonised apomorphine-induced climbing behavior and hypothermia in mice. See Moore, N. A. et al Psychopharmacology 94 (2), 263-266 (1988).

[6] = test system: mice; experiment: apomorphine-induced hypothermia in mice; type: in vivo
Source text: as §1

[7] = test system: 5-HT2B receptor; experiment: 5-HT2B receptor activity

Structure (SMILES)	detection in saliva [1]	stability of the polymorph [2]	induction of catalepsy [3]	inhibition of conditioned avoidance response [4]	antagonism of apomorphine-induced climbing behavior [5]	antagonism of apomorphine-induced hypothermia [6]	5-HT2B receptor activity [7]
Cc1cc2c(s1)Nc1ccccc1N=C2N1CCN(C)CC1 [2-methyl-4-(4-methyl-1-piperazinyl)-10H-thieno-[2,3-b][1,5]benzodiazepine]	can be detected in the saliva						
Cc1cc2c(s1)Nc1ccccc1N=C2N1CCN(C)CC1 [anhydrous Form I olanzapine, 2-methyl-4-(4-methyl-1-piperazinyl)-10H-thieno[2,3-b][1,5]benzodiazepine]		stable	only at higher doses	inhibits	antagonised	antagonised	5-HT2B receptor activity
Cc1cc2c(s1)Nc1ccccc1N=C2N1CCN(C)CC1 [anhydrous Form II olanzapine, 2-methyl-4-(4-methyl-1-piperazinyl)-10H-thieno[2,3-b][1,5]benzodiazepine]		metastable					
